Test results taken from patent US11491120B2, “Pharmacological prophylactics against stress-induced affective disorders in females” (The Trustees of Columbia University in the City of New York, priority 2017, dated 2022).
Entries after “also recorded” stand apart in the source; their conditions may differ.

Legend:
female 129S6/SvEv mice [1] = assay: Forced swim test after 10-day chronic immobilization stress (CIS); assay type: in vivo, mouse; settings: 0.025 mg/kg, 1 week prophylactic drug
Experimental: The CIS procedure induces a depressive-like phenotype in test subjects and has both predictive and face validity (54). Here, we used an adapted protocol from Ramirez et al. (55).
As previously tested in male mice (18), we validated our findings in a model of chronic stress. […] Drug dosages were chosen based on results from FIG. 1 and used for the remainder of the project unless otherwise specified. One week later, a 10-day CIS protocol was administered. Subsequently, mice were tested in the FST.

female 129S6/SvEv mice [2] = assay: Forced swim test (FST), immobility time, after stress
[3] = 0.025 mg/kg, 1 week prophylactic drug
[4] = 0.025 mg/kg, 1 week prophylactic drug, learned helplessness stress
[5] = 0.025 mg/kg, 3 day prophylactic drug

N[C@@]1(c2ccccc2Cl)CCC[C@@H](O)C1=O [(2R,6R)-HNK, (2R,6R)-hydroxynorketamine]
* (significance), Sal vs. drug, Fisher's PLSD: Immobility Time (min 1), Forced Swim Test Day 1 (female 129S6/SvEv mice [1]): *** (*** p<0.0001)
* (significance), Sal vs. drug, Fisher's PLSD: Immobility Time (min 1), Forced Swim Test Day 2 (female 129S6/SvEv mice [1]): ** (** p<0.01)
* (significance), Sal vs. drug, Fisher's PLSD: Immobility Time (min 2), Forced Swim Test Day 1 (female 129S6/SvEv mice [1]): *** (*** p<0.0001)
* (significance), Sal vs. drug, Fisher's PLSD: Immobility Time (min 3), Forced Swim Test Day 1 (female 129S6/SvEv mice [1]): *** (*** p<0.0001)
* (significance), Sal vs. drug, Fisher's PLSD: Immobility Time (min 4), Forced Swim Test Day 1 (female 129S6/SvEv mice [1]): *** (*** p<0.0001)
* (significance), Sal vs. drug, Fisher's PLSD: Immobility Time (min 5), Forced Swim Test Day 1 (female 129S6/SvEv mice [1]): *** (*** p<0.0001)
* (significance), Sal vs. drug, Fisher's PLSD: Immobility Time (min 5), Forced Swim Test Day 2 (female 129S6/SvEv mice [1]): * (* p<0.05)
* (significance), Sal vs. drug, Fisher's PLSD: Immobility Time (min 6), Forced Swim Test Day 1 (female 129S6/SvEv mice [1]): *** (*** p<0.0001)
* (significance), Sal vs. drug, Fisher's PLSD: Immobility Time (min 6), Forced Swim Test Day 2 (female 129S6/SvEv mice [1]): ** (** p<0.01)
* (significance), Sal vs. drug, Fisher's PLSD: Immobility Time Average (min 3-6), Forced Swim Test Day 2 (female 129S6/SvEv mice [1]): * (* p<0.05)
* (significance), Sal vs. drug, Fishers PLSD: Immobility Time Average (min 1-6), Forced Swim Test Day 1 (female 129S6/SvEv mice [1]): *** (*** p<0.0001)
p, Sal vs. drug, Fisher's PLSD: Immobility Time (min 1), Forced Swim Test Day 1 (female 129S6/SvEv mice [1]): <0.0001
p, Sal vs. drug, Fisher's PLSD: Immobility Time (min 1), Forced Swim Test Day 2 (female 129S6/SvEv mice [1]): 0.0073
p, Sal vs. drug, Fisher's PLSD: Immobility Time (min 2), Forced Swim Test Day 1 (female 129S6/SvEv mice [1]): <0.0001
p, Sal vs. drug, Fisher's PLSD: Immobility Time (min 2), Forced Swim Test Day 2 (female 129S6/SvEv mice [1]): 0.8092
p, Sal vs. drug, Fisher's PLSD: Immobility Time (min 3), Forced Swim Test Day 1 (female 129S6/SvEv mice [1]): <0.0001
p, Sal vs. drug, Fisher's PLSD: Immobility Time (min 4), Forced Swim Test Day 1 (female 129S6/SvEv mice [1]): <0.0001
p, Sal vs. drug, Fisher's PLSD: Immobility Time (min 5), Forced Swim Test Day 1 (female 129S6/SvEv mice [1]): <0.0001
p, Sal vs. drug, Fisher's PLSD: Immobility Time (min 5), Forced Swim Test Day 2 (female 129S6/SvEv mice [1]): 0.0328
p, Sal vs. drug, Fisher's PLSD: Immobility Time (min 6), Forced Swim Test Day 1 (female 129S6/SvEv mice [1]): <0.0001
p, Sal vs. drug, Fisher's PLSD: Immobility Time (min 6), Forced Swim Test Day 2 (female 129S6/SvEv mice [1]): 0.0069
p, Sal vs. drug, Fisher's PLSD: Immobility Time Average (min 3-6), Forced Swim Test Day 2 (female 129S6/SvEv mice [1]): 0.0177
p, Sal vs. drug, Fishers PLSD: Immobility Time Average (min 1-6), Forced Swim Test Day 1 (female 129S6/SvEv mice [1]): <0.0001
* (significance), Sal vs. drug, Dunnett test: Immobility Time (min 1-6), Forced Swim Test Day 2 (female 129S6/SvEv mice [2]; [3]): *** (*** p<0.0001)
* (significance), Sal vs. drug, Dunnett test: Immobility Time (min 4), Forced Swim Test Day 2 (female 129S6/SvEv mice [2]; [3]): * (* p<0.05)
* (significance), Sal vs. drug, Dunnett test: Immobility Time (min 5), Forced Swim Test Day 2 (female 129S6/SvEv mice [2]; [3]): * (* p<0.05)
* (significance), Sal vs. drug, Dunnett test: Immobility Time Average (min 3-6), Forced Swim Test Day 2 (female 129S6/SvEv mice [2]; [3]): * (* p<0.05)
p, Sal vs. drug, Dunnett test: Immobility Time (min 1), Forced Swim Test Day 2 (female 129S6/SvEv mice [2]; [3]): 0.0833
p, Sal vs. drug, Dunnett test: Immobility Time (min 1-6), Forced Swim Test Day 2 (female 129S6/SvEv mice [2]; [3]): 0.0001
p, Sal vs. drug, Dunnett test: Immobility Time (min 2), Forced Swim Test Day 2 (female 129S6/SvEv mice [2]; [3]): 0.5867
p, Sal vs. drug, Dunnett test: Immobility Time (min 4), Forced Swim Test Day 2 (female 129S6/SvEv mice [2]; [3]): 0.0383
p, Sal vs. drug, Dunnett test: Immobility Time (min 5), Forced Swim Test Day 2 (female 129S6/SvEv mice [2]; [3]): 0.0346
p, Sal vs. drug, Dunnett test: Immobility Time (min 6), Forced Swim Test Day 2 (female 129S6/SvEv mice [2]; [3]): 0.2356
p, Sal vs. drug, Dunnett test: Immobility Time Average (min 3-6), Forced Swim Test Day 2 (female 129S6/SvEv mice [2]; [3]): 0.0229
* (significance), Sal vs. drug, Fisher's PLSD: Immobility Time Average (min 3-6), Forced Swim Test Day 2 (female 129S6/SvEv mice [2]; [4]): *** (*** p<0.0001)
P, Sal vs. drug, Fisher's PLSD: Immobility Time Average (min 3-6), Forced Swim Test Day 2 (female 129S6/SvEv mice [2]; [4]): <0.0001
p, Sal vs. drug, t-test: Immobility Time Average (min 3-6), Forced Swim Test Day 2 (female 129S6/SvEv mice [2]; 0.025 mg/kg, 24 hour prophylactic drug): 0.1367
Immobility on FST Day 2 vs saline (female 129S6/SvEv mice [2]; 0.025 mg/kg, 24 hours before CFC, female mice): not prophylactically effective when administered 24 h before a stressor; also recorded: did not alter immobility in the FST
* (significance), Sal vs. drug, Fisher's PLSD: Immobility Time (min 1-6), Forced Swim Test Day 2 (female 129S6/SvEv mice [2]; [5]): *** (*** p<0.0001)
* (significance), Sal vs. drug, Fisher's PLSD: Immobility Time Average (min 3-6), Forced Swim Test Day 2 (female 129S6/SvEv mice [2]; [5]): ** (** p<0.01)
p, Sal vs. drug, Fisher's PLSD: Immobility Time (min 1-6), Forced Swim Test Day 2 (female 129S6/SvEv mice [2]; [5]): <0.0001
p, Sal vs. drug, Fisher's PLSD: Immobility Time Average (min 3-6), Forced Swim Test Day 2 (female 129S6/SvEv mice [2]; [5]): 0.0046
p, Sal vs. drug, Dunnett test: Immobility Time (min 1), Forced Swim Test Day 2 (female 129S6/SvEv mice [2]; 0.075 mg/kg, 1 week prophylactic drug): 0.4238
